For 30 molecules, IC50 results are on record in patent US9475784B2, “4,6-diarylaminothiazines as BACE1 inhibitors and their use for the reduction of beta-amyloid production” (BRISTOL-MYERS SQUIBB COMPANY, priority 2012, dated 2016).

Structures are written as SMILES. Structures can show the parent of a compound that is named as a salt.

The experiment relates to Aβ42 production in H4 cells stably transfected with APP751 containing the Swedish mutation (H4 APP751 SWE clone 8.20). Description: Cellular assay for inhibition of Aβ1-42 production (H4 APP751 SWE clone 8.20). The experiment is classed as cell-based. The following applies: H4 APP751 SWE clone 8.20 cells, 19 h incubation. On the procedure: Cellular Assays for Inhibition of Aβ1-40 and Aβ1-42 Production
H4 cells stably transfected with APP751 containing the Swedish mutation (H4 APP751 SWE clone 8.20, developed at BMS) were maintained in log phase through twice weekly passage at a 1:20 split. […] Following incubation for 19 h in 5% CO2 at 37° C., plates were briefly centrifuged (1000 rpm, 5 min). A 10 μl aliquot from each well was transferred to a second assay plate (Costar 3709) for Aβ40 measurements. Antibody cocktails were freshly prepared by dilution into 40 mM Tris-HCl (pH 7.4) with 0.2% BSA and added to assay plates. For Aβ42 measurements, antibodies specific for the Aβ42 neoepitope (565, developed at BMS; conjugated to the Wallac reagent (Perkin Elmer)) and the N-terminal sequence of Aβ peptide (26D6, developed at SIBIA; conjugated to APC (Perkin Elmer)) were mixed and 20 μl of the mixture was added to each well of the incubated cell plate yielding a final concentration of 0.8 ng/well 565 and 75 ng/well 26D6. For the Aβ40 measurements, antibodies specific for the Aβ40 neoepitope (TSD, developed at BMS; conjugated to the Wallac reagent (Perkin Elmer)) and 26D6 as described above were mixed and 20 μl of the mixture was added to the 10 μl aliquots which had been removed previously from the cell plate yielding a final concentration of 1.6 ng/well TSD and 17.5 ng/well 26D6. Assay plates containing antibodies were sealed with aluminum foil and incubated overnight at 4° C. Signal was determined using a Viewlux counter (Perkin Elmer) and IC50 values determined using curve fitting in CurveMaster (Excel Fit based).

Where [1] appears, read: Table 5A, 6-alkyl and 6-substituted phenyl thiazine examples.
The mark [2] stands for this setting: Table 5B, 6-heterocyclic thiazine examples.

Under setting [1], `COc1ccc([C@@H]2C[C@@H](c3cc(-c4cncnc4)ccc3F)N=C(N)S2)cc1OC` (single isomer, unassigned) [Example 8A] registered an IC50 of 460 nM.
`Cc1noc(C)c1[C@@H]1C[C@@](C)(c2cc(-c3cncc(O)c3)c(F)cc2F)N=C(N)S1` [Example 53, 5-(5-((4S,6S)-2-amino-6-(3,5-dimethylisoxazol-4-yl)-4-methyl-5,6-dihydro-4H-1,3-thiazin-4-yl)-2,4-difluorophenyl)pyridin-3-ol] displayed an IC50 under setting [2] of 300 nM.
Same read-out and setting: to `CC[C@@]1(c2ccc(F)cc2F)C[C@@H](c2c(C)noc2C)SC(N)=N1` [Example 51, (4S,6S)-4-(2,4-difluorophenyl)-6-(3,5-dimethylisoxazol-4-yl)-4-ethyl-5,6-dihydro-4H-1,3-thiazin-2-amine] belongs 1300 nM; to `Cc1ncc(-c2cc([C@]3(C)C[C@@H](c4c(C)noc4C)SC(N)=N3)c(F)cc2F)cn1` [Example 40, (4S,6S)-4-(2,4-difluoro-5-(2-methylpyrimidin-5-yl)phenyl)-6-(3,5-dimethylisoxazol-4-yl)-4-methyl-5,6-dihydro-4H-1,3-thiazin-2-amine], 186 nM.
The same measure, in the same setting: to `Cc1noc(C)c1[C@@H]1C[C@@H](c2cccc(-c3cncnc3)c2)N=C(N)S1` (racemic) [Example 19, (±)-6-(3,5-dimethylisoxazol-4-yl)-4-(3-(pyrimidin-5-yl)phenyl)-5,6-dihydro-4H-1,3-thiazin-2-amine•TFA] belongs 230 nM; to `CC(=O)c1cc([C@]2(C)C[C@@H](c3c(C)noc3C)SC(N)=N2)c(F)cc1F` [Example 47, 1-(5-((4S,6S)-2-amino-6-(3,5-dimethylisoxazol-4-yl)-4-methyl-5,6-dihydro-4H-1,3-thiazin-4-yl)-2,4-difluorophenyl)ethanone], 220 nM; to `Cc1noc(C)c1[C@]1(C)C[C@@H](c2cc(-c3cncnc3)c(F)cc2F)N=C(N)S1` (racemic) [Example 34, (±)-4-(2,4-difluoro-5-(pyrimidin-5-yl)phenyl)-6-(3,5-dimethylisoxazol-4-yl)-6-methyl-5,6-dihydro-4H-1,3-thiazin-2-amine•TFA], 2700 nM.
On the same count and under the same terms, to `Cc1n[nH]c(C)c1[C@@H]1C[C@@H](c2cccc(-c3cncnc3)c2)N=C(N)S1` (racemic) [Example 18, (±)-6-(3,5-dimethyl-1H-pyrazol-4-yl)-4-(3-(pyrimidin-5-yl)phenyl)-5,6-dihydro-4H-1,3-thiazin-2-amine•TFA] belongs 7100 nM.
Regarding `COc1ccc([C@@H]2C[C@@H](c3cccc(-c4cncnc4)c3)N=C(N)S2)cc1OC` (racemic) [Example 3, (±)-6-(3,4-dimethoxyphenyl)-4-(3-(pyrimidin-5-yl)phenyl)-5,6-dihydro-4H-1,3-thiazin-2-amine], half-maximal inhibition under setting [1] (IC50) was put at 1100 nM.
As to `CC#Cc1cncc(-c2csc([C@@H]3C[C@@H](c4c(C)noc4C)SC(N)=N3)c2)c1` (racemic) [Example 36, (±)-6-(3,5-dimethylisoxazol-4-yl)-4-(4-(5-(prop-1-ynyl)pyridin-3-yl)thiophen-2-yl)-5,6-dihydro-4H-1,3-thiazin-2-amine], the half-inhibitory concentration (IC50) under setting [2] is 60 nM.
On the same count and under the same terms, to `Cc1nocc1[C@@H]1C[C@@](C)(c2ccc(F)cc2F)N=C(N)S1` [Example 61, (4S,6S)-4-(2,4-difluorophenyl)-4-methyl-6-(3-methylisoxazol-4-yl)-5,6-dihydro-4H-1,3-thiazin-2-amine] belongs 300 nM.
`NC1=N[C@H](c2cccc(-c3cncnc3)c2)C[C@@H](c2ccc(Cl)cc2)S1` (racemic) [Example 14, (±)-6-(4-chlorophenyl)-4-(3-(pyrimidin-5-yl)phenyl)-5,6-dihydro-4H-1,3-thiazin-2-amine•TFA] came in with an IC50 under setting [1] of 2700 nM.
Under setting [1], `NC1=N[C@H](c2cccc(-c3cncnc3)c2)C[C@@H](c2ccccc2)S1` (racemic) [Example 2, (±)-6-phenyl-4-(3-(pyrimidin-5-yl)phenyl)-5,6-dihydro-4H-1,3-thiazin-2-amine] had a half-inhibitory concentration (IC50) of 4100 nM. This IC50 lies about 1.5-fold higher than the previous one.
Turning to `Cc1noc(CC(C)(C)O)c1[C@@H]1C[C@@](C)(c2ccc(F)cc2F)N=C(N)S1` [Example 48, 1-(4-((4S,6S)-2-amino-4-(2,4-difluorophenyl)-4-methyl-5,6-dihydro-4H-1,3-thiazin-6-yl)-3-methylisoxazol-5-yl)-2-methylpropan-2-ol], the IC50 under setting [2] was found to be 110 nM.
With `NC1=N[C@H](c2cccc(-c3cncnc3)c2)C[C@@H](c2ccc(OC(F)(F)F)cc2)S1` (racemic) [Example 9, (±)-4-(3-(pyrimidin-5-yl)phenyl)-6-(4-(trifluoromethoxy)phenyl)-5,6-dihydro-4H-1,3-thiazin-2-amine], the half-inhibitory concentration (IC50) under setting [1] amounted to 8900 nM.
The same measure, in the same setting: the figure for `COc1ccc([C@@H]2C[C@@H](c3cc(-c4cncnc4)c(F)cc3F)N=C(N)S2)cc1OC` (single isomer, unassigned) [Example 1A] is 290 nM; for `NC1=N[C@H](c2cccc(-c3cncnc3)c2)C[C@@H](c2ccc(F)cc2)S1` (racemic) [Example 16, (±)-6-(4-fluorophenyl)-4-(3-(pyrimidin-5-yl)phenyl)-5,6-dihydro-4H-1,3-thiazin-2-amine•TFA] it is 2600 nM.
With `COc1ncccc1-c1cc([C@]2(C)C[C@@H](c3c(C)noc3C)SC(N)=N2)c(F)cc1F` [Example 56, (4S,6S)-4-(2,4-difluoro-5-(2-methoxypyridin-3-yl)phenyl)-6-(3,5-dimethylisoxazol-4-yl)-4-methyl-5,6-dihydro-4H-1,3-thiazin-2-amine], the half-inhibitory concentration (IC50) under setting [2] came to 670 nM.
`COc1ccc(-c2cc([C@]3(C)C[C@@H](c4c(C)noc4C)SC(N)=N3)c(F)cc2F)cn1` [Example 54, (4S,6S)-4-(2,4-difluoro-5-(6-methoxypyridin-3-yl)phenyl)-6-(3,5-dimethylisoxazol-4-yl)-4-methyl-5,6-dihydro-4H-1,3-thiazin-2-amine]: the IC50 under setting [2] was 320 nM.
The same measure, in the same setting: to `Cc1noc(C)c1[C@@H]1C[C@@H](c2cc(NC(=O)c3ccc(Cl)cn3)ccc2F)N=C(N)S1` (racemic) [Example 38, N-(3-((±)-2-amino-6-(3,5-dimethylisoxazol-4-yl)-5,6-dihydro-4H-1,3-thiazin-4-yl)-4-fluorophenyl)-5-chloropicolinamide•TFA] belongs 11 nM.
Under setting [2], `Cc1ncsc1[C@@H]1C[C@@H](c2cccc(-c3cncnc3)c2)N=C(N)S1` (racemic) [Example 24, (±)-6-(4-methylthiazol-5-yl)-4-(3-(pyrimidin-5-yl)phenyl)-5,6-dihydro-4H-1,3-thiazin-2-amine•TFA] showed an IC50 of 1000 nM.
Turning to `Cn1cc([C@@H]2C[C@@H](c3cccc(-c4cncnc4)c3)N=C(N)S2)cn1` (racemic) [Example 27, (±)-6-(1-methyl-1H-pyrazol-4-yl)-4-(3-(pyrimidin-5-yl)phenyl)-5,6-dihydro-4H-1,3-thiazin-2-amine•TFA], it took 2600 nM to reach half-maximal inhibition under setting [2] (IC50).
Turning to `Cc1noc(C)c1[C@@H]1C[C@@H](c2cc(-c3cccc(C#N)c3)cs2)N=C(N)S1` (racemic) [Example 35, 3-(5-((±)-2-amino-6-(3,5-dimethylisoxazol-4-yl)-5,6-dihydro-4H-1,3-thiazin-4-yl)thiophen-3-yl)benzonitrile], the IC50 under setting [2] is 300 nM.
Regarding `COc1ccc([C@@H]2C[C@@H](c3cccc(-c4cncnc4)c3)N=C(N)S2)cc1OC` (single isomer, unassigned) [Example 3A], 1100 nM corresponded to half-maximal inhibition under setting [1] (IC50).
As to `C[C@@]1(c2ccc(F)cc2F)C[C@@H](c2cncnc2)SC(N)=N1` [Example 62, (4S,6S)-4-(2,4-difluorophenyl)-4-methyl-6-(pyrimidin-5-yl)-5,6-dihydro-4H-1,3-thiazin-2-amine], the IC50 under setting [2] came to 310 nM.
For `COc1ccc([C@@H]2C[C@@H](c3ccc(F)c(-c4cncnc4)c3)N=C(N)S2)cc1OC` (single isomer, unassigned) [Example 7A], the IC50 under setting [1] is 350 nM.
Same read-out and setting: to `COc1ccc([C@@H]2C[C@@H](c3ccc(F)c(-c4cncnc4)c3)N=C(N)S2)cc1OC` (racemic) [Example 7, (±)-6-(3,4-dimethoxyphenyl)-4-(4-fluoro-3-(pyrimidin-5-yl)phenyl)-5,6-dihydro-4H-1,3-thiazin-2-amine] belongs 1700 nM.
Turning to `COc1ccccc1[C@@H]1C[C@@H](c2cccc(-c3cncnc3)c2)N=C(N)S1` (racemic) [Example 11, (±)-6-(2-methoxyphenyl)-4-(3-(pyrimidin-5-yl)phenyl)-5,6-dihydro-4H-1,3-thiazin-2-amine•TFA], under setting [1], the IC50 came out at 2400 nM.
Regarding `Cc1noc(C)c1[C@@H]1C[C@@H](c2cc(-c3cncnc3)c(F)cc2F)N=C(N)S1` (racemic) [Example 29, (±)-4-(2,4-difluoro-5-(pyrimidin-5-yl)phenyl)-6-(3,5-dimethylisoxazol-4-yl)-5,6-dihydro-4H-1,3-thiazin-2-amine], the half-inhibitory concentration (IC50) under setting [2] worked out at 200 nM.
On the same count and under the same terms, to `Cc1noc(C)c1[C@@H]1C[C@@](C)(c2cc(-c3cncnc3)c(F)cc2F)N=C(N)S1` [Example 39, (4S,6S)-4-(2,4-difluoro-5-(pyrimidin-5-yl)phenyl)-6-(3,5-dimethylisoxazol-4-yl)-4-methyl-5,6-dihydro-4H-1,3-thiazin-2-amine] belongs 8 nM.

What is called IC50 is the concentration needed to halve the response being measured. Higher therefore signals lower potency.
